Tests used:
[1] = target: Beta-2 adrenergic receptor (Rattus norvegicus, UniProt P10608)
Galanin peptides = target: T1, Galanin peptides (Rattus norvegicus, UniProt P10683)
T1 sequence (P10683 whole entry): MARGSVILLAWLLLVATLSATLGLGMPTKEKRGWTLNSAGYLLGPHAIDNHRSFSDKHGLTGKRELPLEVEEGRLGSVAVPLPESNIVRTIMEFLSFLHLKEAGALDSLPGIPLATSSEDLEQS

D(1A) dopamine receptor = D(1A) dopamine receptor (Rattus norvegicus, UniProt P18901)
[2] = target: Nicotinic acetylcholine receptor (Rattus leucopus, UniProt Q62594)
[3] = target: 5-hydroxytryptamine receptor 2A (Rattus norvegicus, UniProt P14842)
D(3) dopamine receptor = D(3) dopamine receptor (Homo sapiens, UniProt P35462)
[4] = target: T2, Muscarinic acetylcholine receptor M2 (Rattus norvegicus, UniProt P10980)
T2 sequence (P10980 whole entry): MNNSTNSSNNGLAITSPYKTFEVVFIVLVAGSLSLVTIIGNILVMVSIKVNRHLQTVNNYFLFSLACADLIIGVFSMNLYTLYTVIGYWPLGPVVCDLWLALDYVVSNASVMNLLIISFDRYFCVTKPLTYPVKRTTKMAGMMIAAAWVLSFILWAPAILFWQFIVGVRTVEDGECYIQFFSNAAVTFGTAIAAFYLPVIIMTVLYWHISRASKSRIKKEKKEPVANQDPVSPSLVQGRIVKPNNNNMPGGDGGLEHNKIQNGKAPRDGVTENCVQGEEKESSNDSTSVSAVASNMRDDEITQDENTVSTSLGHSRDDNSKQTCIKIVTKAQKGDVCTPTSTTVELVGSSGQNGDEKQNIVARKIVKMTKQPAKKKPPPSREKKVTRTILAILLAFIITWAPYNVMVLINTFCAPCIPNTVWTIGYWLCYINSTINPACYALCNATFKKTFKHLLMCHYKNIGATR

Histamine H1 receptor = Histamine H1 receptor (Rattus norvegicus, UniProt P31390)
Histamine H2 receptor = Histamine H2 receptor (Cavia porcellus, UniProt P47747)
Glutamate receptor 3 = Glutamate receptor 3 (Rattus norvegicus, UniProt P19492)
[5] = target: Glutamate receptor ionotropic, NMDA 1 (Rattus norvegicus, UniProt P35439)
[6] = target: T3, Alpha-2C adrenergic receptor (Rattus norvegicus, UniProt P22086)
T3 sequence (P22086 whole entry): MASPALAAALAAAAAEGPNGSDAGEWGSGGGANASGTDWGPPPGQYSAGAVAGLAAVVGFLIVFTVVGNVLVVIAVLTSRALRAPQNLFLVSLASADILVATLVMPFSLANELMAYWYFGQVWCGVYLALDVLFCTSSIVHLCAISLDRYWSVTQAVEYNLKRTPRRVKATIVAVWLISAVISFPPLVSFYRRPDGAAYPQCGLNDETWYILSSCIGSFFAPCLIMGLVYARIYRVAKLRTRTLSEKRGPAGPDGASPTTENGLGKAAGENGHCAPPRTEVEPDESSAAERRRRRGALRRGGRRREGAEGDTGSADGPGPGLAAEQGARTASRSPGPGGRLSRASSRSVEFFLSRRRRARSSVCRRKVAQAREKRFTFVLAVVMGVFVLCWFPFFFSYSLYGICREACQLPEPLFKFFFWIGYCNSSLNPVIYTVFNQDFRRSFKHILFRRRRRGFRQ

[7] = target: Gamma-aminobutyric acid receptor subunit alpha-1 (Rattus norvegicus, UniProt P62813)
D(2) dopamine receptor = D(2) dopamine receptor (Homo sapiens, UniProt P14416)
[8] = target: 5-hydroxytryptamine receptor 6 (Rattus norvegicus, UniProt P31388)
[9] = target: 5-hydroxytryptamine receptor 7 (Rattus norvegicus, UniProt P32305)
[10] = target: T4, 5-hydroxytryptamine receptor 1A (Rattus norvegicus, UniProt P19327)
T4 sequence (P19327 whole entry): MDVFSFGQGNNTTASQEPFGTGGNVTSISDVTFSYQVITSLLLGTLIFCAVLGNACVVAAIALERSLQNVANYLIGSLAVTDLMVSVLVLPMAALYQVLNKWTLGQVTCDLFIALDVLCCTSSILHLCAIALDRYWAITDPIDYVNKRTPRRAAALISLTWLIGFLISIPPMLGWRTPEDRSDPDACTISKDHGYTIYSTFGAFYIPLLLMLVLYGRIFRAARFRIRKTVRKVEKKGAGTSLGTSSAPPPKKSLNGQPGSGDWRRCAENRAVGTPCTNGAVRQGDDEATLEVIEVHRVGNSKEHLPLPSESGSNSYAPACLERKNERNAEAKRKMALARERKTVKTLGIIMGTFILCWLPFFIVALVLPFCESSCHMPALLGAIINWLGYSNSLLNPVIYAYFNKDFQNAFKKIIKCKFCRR

[11] = target: T5, Alpha-1A adrenergic receptor (Rattus norvegicus, UniProt P43140)
T5 sequence (P43140 whole entry): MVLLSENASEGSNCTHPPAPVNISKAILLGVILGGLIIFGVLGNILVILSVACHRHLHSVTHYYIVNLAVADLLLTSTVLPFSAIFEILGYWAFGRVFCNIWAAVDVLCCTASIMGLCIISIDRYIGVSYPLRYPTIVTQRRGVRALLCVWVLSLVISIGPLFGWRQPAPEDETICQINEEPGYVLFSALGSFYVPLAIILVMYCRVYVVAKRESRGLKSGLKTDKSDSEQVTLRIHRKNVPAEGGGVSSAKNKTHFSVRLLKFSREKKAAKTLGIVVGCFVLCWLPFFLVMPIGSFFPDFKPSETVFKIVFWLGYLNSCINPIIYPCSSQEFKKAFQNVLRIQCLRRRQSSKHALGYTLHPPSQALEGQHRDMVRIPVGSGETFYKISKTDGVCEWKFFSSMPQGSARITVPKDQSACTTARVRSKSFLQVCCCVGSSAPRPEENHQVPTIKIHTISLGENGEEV

[12] = target: 5-hydroxytryptamine receptor 1B (Rattus norvegicus, UniProt P28564)

Chain of Beta-2 adrenergic receptor (P10608 whole entry): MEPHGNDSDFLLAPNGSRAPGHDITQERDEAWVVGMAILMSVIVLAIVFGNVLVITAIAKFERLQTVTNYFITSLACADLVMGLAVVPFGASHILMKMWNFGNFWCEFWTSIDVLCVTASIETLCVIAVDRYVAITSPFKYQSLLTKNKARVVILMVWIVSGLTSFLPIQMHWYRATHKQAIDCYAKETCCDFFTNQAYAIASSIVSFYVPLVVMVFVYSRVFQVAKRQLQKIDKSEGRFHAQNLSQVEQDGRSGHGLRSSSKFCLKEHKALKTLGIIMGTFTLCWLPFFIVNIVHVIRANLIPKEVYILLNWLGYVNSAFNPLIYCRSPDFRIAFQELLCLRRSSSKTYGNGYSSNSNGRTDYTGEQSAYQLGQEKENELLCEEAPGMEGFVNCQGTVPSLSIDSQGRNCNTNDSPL
Chain of Gamma-aminobutyric acid receptor subunit alpha-1 (P62813 whole entry): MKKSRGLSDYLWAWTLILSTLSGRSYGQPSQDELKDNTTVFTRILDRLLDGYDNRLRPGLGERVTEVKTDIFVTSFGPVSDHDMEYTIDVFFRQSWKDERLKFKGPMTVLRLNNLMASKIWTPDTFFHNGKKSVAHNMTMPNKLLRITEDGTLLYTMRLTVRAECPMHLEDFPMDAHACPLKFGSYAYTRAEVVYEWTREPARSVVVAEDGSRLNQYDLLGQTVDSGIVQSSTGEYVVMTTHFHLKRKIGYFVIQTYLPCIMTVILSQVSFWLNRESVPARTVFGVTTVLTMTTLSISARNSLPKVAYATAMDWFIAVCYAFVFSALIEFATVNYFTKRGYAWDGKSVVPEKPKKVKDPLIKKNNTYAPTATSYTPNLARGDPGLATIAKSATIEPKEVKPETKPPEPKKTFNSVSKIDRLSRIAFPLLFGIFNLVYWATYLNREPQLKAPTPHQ
Chain of D(3) dopamine receptor (P35462 as listed by the source): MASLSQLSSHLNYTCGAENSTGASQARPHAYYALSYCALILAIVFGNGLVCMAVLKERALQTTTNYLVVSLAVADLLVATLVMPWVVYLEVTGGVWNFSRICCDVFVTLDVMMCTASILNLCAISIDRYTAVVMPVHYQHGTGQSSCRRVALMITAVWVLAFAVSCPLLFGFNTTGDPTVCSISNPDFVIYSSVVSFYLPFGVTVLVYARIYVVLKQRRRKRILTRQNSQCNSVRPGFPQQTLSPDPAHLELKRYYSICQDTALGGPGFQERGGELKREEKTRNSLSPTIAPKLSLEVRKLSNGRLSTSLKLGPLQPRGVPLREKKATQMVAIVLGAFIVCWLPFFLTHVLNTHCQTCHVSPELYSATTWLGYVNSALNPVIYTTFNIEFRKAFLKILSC
Chain of Glutamate receptor 3 (P19492 whole entry): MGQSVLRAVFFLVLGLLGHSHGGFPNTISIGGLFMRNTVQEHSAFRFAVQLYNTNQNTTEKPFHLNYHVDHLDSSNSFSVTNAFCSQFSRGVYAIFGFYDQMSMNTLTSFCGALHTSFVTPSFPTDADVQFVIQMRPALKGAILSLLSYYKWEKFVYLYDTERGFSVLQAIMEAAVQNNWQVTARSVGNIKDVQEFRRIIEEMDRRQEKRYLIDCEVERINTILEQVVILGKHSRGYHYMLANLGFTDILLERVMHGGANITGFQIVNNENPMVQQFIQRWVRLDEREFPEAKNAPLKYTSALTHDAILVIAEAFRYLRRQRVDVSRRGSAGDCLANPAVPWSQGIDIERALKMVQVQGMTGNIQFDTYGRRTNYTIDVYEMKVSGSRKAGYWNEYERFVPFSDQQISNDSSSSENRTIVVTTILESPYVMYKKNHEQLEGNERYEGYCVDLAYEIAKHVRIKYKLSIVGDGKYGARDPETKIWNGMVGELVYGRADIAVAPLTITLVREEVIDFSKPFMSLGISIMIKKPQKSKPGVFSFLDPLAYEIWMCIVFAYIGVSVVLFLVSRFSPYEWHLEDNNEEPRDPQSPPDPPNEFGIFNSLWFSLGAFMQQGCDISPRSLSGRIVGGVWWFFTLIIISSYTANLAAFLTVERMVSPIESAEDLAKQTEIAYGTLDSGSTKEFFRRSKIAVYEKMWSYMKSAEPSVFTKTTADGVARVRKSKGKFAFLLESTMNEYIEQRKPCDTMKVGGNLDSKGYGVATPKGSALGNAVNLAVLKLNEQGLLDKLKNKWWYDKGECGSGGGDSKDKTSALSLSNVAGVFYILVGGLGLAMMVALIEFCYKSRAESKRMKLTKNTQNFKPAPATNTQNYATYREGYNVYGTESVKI
Chain of Histamine H2 receptor (P47747 whole entry): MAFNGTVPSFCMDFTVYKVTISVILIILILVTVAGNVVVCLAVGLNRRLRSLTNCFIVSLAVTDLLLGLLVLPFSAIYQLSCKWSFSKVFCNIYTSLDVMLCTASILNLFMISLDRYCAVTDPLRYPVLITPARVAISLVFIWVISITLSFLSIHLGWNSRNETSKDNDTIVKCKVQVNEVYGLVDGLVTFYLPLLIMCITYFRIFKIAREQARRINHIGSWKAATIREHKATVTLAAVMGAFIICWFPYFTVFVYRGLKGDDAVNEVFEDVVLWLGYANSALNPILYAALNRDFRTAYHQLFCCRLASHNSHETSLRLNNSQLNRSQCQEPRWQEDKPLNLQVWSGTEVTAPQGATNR
Chain of Histamine H1 receptor (P31390 whole entry): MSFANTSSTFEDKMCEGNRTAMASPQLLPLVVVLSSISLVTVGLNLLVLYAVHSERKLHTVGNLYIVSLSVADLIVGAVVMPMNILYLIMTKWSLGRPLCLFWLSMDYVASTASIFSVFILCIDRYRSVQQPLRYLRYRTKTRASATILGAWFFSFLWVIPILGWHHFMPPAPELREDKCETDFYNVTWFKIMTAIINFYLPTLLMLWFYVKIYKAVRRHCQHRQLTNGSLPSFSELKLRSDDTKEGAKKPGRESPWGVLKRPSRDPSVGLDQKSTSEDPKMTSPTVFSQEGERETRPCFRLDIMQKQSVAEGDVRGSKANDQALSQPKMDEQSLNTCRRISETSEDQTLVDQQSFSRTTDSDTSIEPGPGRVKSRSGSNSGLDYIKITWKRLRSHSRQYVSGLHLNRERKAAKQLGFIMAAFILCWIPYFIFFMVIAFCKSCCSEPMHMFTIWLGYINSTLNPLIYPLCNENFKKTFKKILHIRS
Chain of 5-hydroxytryptamine receptor 2A (P14842 whole entry): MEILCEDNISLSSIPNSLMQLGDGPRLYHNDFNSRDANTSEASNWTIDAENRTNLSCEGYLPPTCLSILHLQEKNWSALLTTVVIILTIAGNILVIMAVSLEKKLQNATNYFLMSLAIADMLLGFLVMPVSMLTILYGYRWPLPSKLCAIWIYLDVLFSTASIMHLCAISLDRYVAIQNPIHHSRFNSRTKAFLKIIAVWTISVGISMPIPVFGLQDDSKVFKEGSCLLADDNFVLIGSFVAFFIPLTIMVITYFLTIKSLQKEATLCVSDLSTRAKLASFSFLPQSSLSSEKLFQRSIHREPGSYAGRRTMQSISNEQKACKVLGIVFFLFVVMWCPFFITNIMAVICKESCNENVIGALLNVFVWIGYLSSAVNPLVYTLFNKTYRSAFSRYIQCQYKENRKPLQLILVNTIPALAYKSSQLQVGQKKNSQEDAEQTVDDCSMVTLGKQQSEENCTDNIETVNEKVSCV
Chain of Nicotinic acetylcholine receptor (Q62594 whole entry): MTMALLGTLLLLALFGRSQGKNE
Chain of D(2) dopamine receptor (P14416 whole entry): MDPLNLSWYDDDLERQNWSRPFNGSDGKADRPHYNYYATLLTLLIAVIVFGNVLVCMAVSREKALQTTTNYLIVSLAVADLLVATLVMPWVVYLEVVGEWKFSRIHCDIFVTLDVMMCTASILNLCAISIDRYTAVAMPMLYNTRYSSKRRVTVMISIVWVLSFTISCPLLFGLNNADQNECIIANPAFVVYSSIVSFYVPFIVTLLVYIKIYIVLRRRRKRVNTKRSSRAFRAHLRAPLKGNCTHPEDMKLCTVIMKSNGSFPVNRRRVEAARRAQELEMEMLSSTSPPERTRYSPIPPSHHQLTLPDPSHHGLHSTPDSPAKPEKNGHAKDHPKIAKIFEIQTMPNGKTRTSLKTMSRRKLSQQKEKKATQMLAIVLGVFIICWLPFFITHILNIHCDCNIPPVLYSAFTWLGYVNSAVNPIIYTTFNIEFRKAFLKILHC
Chain of D(1A) dopamine receptor (P18901 whole entry): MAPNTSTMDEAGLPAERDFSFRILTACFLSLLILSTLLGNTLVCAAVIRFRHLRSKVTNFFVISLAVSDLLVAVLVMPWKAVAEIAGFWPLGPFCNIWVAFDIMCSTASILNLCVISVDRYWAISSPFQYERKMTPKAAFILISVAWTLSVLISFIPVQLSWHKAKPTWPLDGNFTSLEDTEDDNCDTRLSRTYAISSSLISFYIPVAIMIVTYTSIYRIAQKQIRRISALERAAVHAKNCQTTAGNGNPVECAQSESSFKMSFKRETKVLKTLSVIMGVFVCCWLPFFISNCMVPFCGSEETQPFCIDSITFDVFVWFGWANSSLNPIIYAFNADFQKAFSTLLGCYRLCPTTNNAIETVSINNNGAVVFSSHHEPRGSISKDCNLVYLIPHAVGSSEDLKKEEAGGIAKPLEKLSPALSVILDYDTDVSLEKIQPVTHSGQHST
Chain of 5-hydroxytryptamine receptor 6 (P31388 whole entry): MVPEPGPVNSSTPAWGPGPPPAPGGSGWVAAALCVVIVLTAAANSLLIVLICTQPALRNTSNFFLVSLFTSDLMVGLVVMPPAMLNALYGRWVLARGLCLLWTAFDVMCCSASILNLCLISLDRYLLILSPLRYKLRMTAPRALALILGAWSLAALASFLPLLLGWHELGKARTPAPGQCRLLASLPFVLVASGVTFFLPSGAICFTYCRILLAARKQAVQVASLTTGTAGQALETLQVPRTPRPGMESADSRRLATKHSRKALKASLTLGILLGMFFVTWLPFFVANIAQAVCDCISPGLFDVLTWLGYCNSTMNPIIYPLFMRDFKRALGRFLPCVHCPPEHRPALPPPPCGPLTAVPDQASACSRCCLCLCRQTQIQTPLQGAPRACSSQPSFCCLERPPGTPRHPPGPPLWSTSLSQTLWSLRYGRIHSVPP

Ki [1] | Ki (Galanin peptides) | Ki (D(1A) dopamine receptor) | Ki [2] | Ki [3] | Ki (D(3) dopamine receptor) | Ki [4] | Ki (Histamine H1 receptor) | Ki (Histamine H2 receptor) | Ki (Glutamate receptor 3) | Ki [5] | Ki [6] | Ki [7] | Ki (D(2) dopamine receptor) | Ki [8] | Ki [9] | Ki [10] | Ki [11] | Ki [12] | SMILES
1000 nM | 2600 nM | 1000 nM | > 10000 nM | 1100 nM | 67 nM | 1000 nM | > 10000 nM | > 10000 nM | > 10000 nM | > 10000 nM | 1000 nM | > 10000 nM | 79 nM |  |  |  |  |  | COc1ccccc1N1CCN(CCN(C(=O)C2CCCCC2)c2ccccn2)CC1
340 nM | 2600 nM | 1000 nM | > 10000 nM | > 10000 nM | 1000 nM | 1000 nM | > 10000 nM | > 10000 nM | > 10000 nM | > 10000 nM | 1000 nM | > 10000 nM | 1000 nM | > 10000 nM | 1900 nM | 0.59 nM | 260 nM | 1000 nM | NC(=O)c1ccc(F)c2c1CC(N(C1CCC1)C1CCC1)CO2 (stereo not drawn) [CAS_3055171]
